In patent publication US8217029B2, “Oxazolidinone antibiotics” (Actelion Pharmaceuticals Ltd, priority 2007, dated 2012):
In brackets after ≈: the same amount, converted by molar mass.

System: S aureus A798
Assay: Minimal inhibitory concentration (MIC), microdilution method in cation-adjusted Mueller-Hinton Broth following NCCLS guidelines
Type: cell-based
Conditions: pH of test medium 7.2-7.3
Method: These assays have been performed following the description given in “Methods for dilution Antimicrobial Susceptibility Tests for Bacteria that Grow Aerobically, 4th ed.; Approved standard: NCCLS Document M7-A4; National Committee for Clinical Laboratory Standards Villanova, Pa., USA, 1997”. Minimal inhibitory concentrations (MICs; mg/l) were determined in cation-adjusted Mueller-Hinton Broth by a microdilution method following NCCLS guidelines (National Committee for Clinical Laboratory Standards. Methods for Dilution Antimicrobial Susceptibility). The pH of the test medium was 7.2-7.3. All Example compounds were tested against several Gram positive and Gram negative bacteria.

Row | MIC | Structure (SMILES)
1 | 0.25 µg/mL (≈ 0.539 µM) | COc1ccc(N2C[C@@H](CNC3CCN(c4ccnc5ccc(OC)nc45)CC3)OC2=O)cc1 [Example 183, (R)-5-{[1-(6-Methoxy-[1,5]naphthyridin-4-yl)-piperidin-4-ylamino]-methyl}-3-(4-methoxy-phenyl)-oxazolidin-2-one]
2 | ≤ 0.031 µg/mL | COc1ccc2nccc(N3CCCN(C[C@H]4CN(c5ccc6c(c5)NC(=O)CS6)C(=O)O4)CC3)c2n1 [Example 166, 6-{(S)-5-[4-(6-Methoxy-[1,5]naphthyridin-4-yl)-[1,4]diazepan-1-ylmethyl]-2-oxo-oxazolidin-3-yl}-4H-benzo[1,4]thiazin-3-one]
3 | ≤ 0.031 µg/mL | COc1ccc2nccc(N3CCN(C[C@@H]4CN(c5ccc(F)c(Cl)c5)C(=O)O4)CC3)c2n1 [Example 17, (R)-3-(3-Chloro-4-fluoro-phenyl)-5-[4-(6-methoxy-[1,5]naphthyridin-4-yl)-piperazin-1-ylmethyl]-oxazolidin-2-one]
4 | ≤ 0.031 µg/mL | COc1ccc2nccc(N3CC(NC[C@@H]4CN(c5ccc(C)c(F)c5)C(=O)O4)C3)c2n1 [Example 50, (R)-3-(3-Fluoro-4-methyl-phenyl)-5-{[1-(6-methoxy-[1,5]naphthyridin-4-yl)-azetidin-3-ylamino]-methyl}-oxazolidin-2-one]
5 | ≤ 0.031 µg/mL | COc1ccc2ncc(F)c(N3CCCN(C[C@@H]4CN(c5ccc6c(c5)NC(=O)CO6)C(=O)O4)CC3)c2n1 [Example 103, 6-{(R)-5-[4-(3-Fluoro-6-methoxy-[1,5]naphthyridin-4-yl)-[1,4]diazepan-1-ylmethyl]-2-oxo-oxazolidin-3-yl}-4H-benzo[1,4]oxazin-3-one]
6 | ≤ 0.031 µg/mL | COc1ccc2nccc(N3C[C@H](NC(=O)[C@@H]4CN(c5ccc6c(c5)OCCO6)C(=O)O4)C[C@H]3CO)c2n1 [Example 78, (S)-3-(2,3-Dihydro-benzo[1,4]dioxin-6-yl)-2-oxo-oxazolidine-5-carboxylic acid [(3R,5S)-5-hydroxymethyl-1-(6-methoxy-[1,5]naphthyridin-4-yl)-pyrrolidin-3-yl]-amide]
7 | 0.25 µg/mL (≈ 0.537 µM) | COc1ccc2nccc(N3CC[C@H](NC(=O)[C@@H]4CN(c5ccc(C)c(F)c5)C(=O)O4)C3)c2n1 [Example 63, (S)-3-(3-Fluoro-4-methyl-phenyl)-2-oxo-oxazolidine-5-carboxylic acid [(S)-1-(6-methoxy-[1,5]naphthyridin-4-yl)-pyrrolidin-3-yl]-amide]
8 | ≤ 0.031 µg/mL | COc1ccc2nccc(N3C[C@@H](NC[C@@H]4CN(c5ccc6c(c5)NC(=O)CS6)C(=O)O4)[C@H](OC)C3)c2n1 (relative stereo) [Example 75, 6-((R)-5-{[(3R*,4R*)-4-Methoxy-1-(6-methoxy-[1,5]naphthyridin-4-yl)-pyrrolidin-3-ylamino]-methyl}-2-oxo-oxazolidin-3-yl)-4H-benzo[1,4]thiazin-3-one]
9 | ≤ 0.031 µg/mL | COc1ccc2nccc(N3CC[C@@H](CNC[C@@H]4CN(c5ccc6c(c5)NC(=O)CO6)C(=O)O4)C3)c2n1 [Example 168, 6-[(R)-5-({[(S)-1-(6-Methoxy-[1,5]naphthyridin-4-yl)-pyrrolidin-3-ylmethyl]-amino}-methyl)-2-oxo-oxazolidin-3-yl]-4H-benzo[1,4]oxazin-3-one]
10 | 2 µg/mL | COc1ccc2nccc(N3C[C@H]4CCN(C[C@@H]5CN(c6ccc7c(c6)OCCO7)C(=O)O5)[C@H]4C3)c2n1 (mixture of isomers) [Example 94, (R)-3-(2,3-Dihydro-benzo[1,4]dioxin-6-yl)-5-{[(3aR*,6aR*)-5-(6-methoxy-[1,5]naphthyridin-4-yl)-hexahydro-pyrrolo[3,4-b]pyrrol-1-yl]-methyl}-oxazolidin-2-one]
11 | ≤ 0.031 µg/mL | COc1ccc2nccc(N3CC[C@H](NCCC4CN(c5ccc6c(c5)NC(=O)CS6)C(=O)O4)C3)c2n1 (mixture of isomers) [Example 86, 6-((RS)-5-{2-[(S)-1-(6-Methoxy-[1,5]naphthyridin-4-yl)-pyrrolidin-3-ylamino]-ethyl}-2-oxo-oxazolidin-3-yl)-4H-benzo[1,4]thiazin-3-one]
12 | ≤ 0.031 µg/mL | COc1ccc2nccc(N3CCN(C[C@@H]4CN(c5ccc6ncsc6c5)C(=O)O4)CC3)c2n1 [Example 19, (R)-3-Benzothiazol-6-yl-5-[4-(6-methoxy-[1,5]naphthyridin-4-yl)-piperazin-1-ylmethyl]-oxazolidin-2-one]
13 | 0.063 µg/mL (≈ 0.14 µM) | COc1ccc2nccc(N3CCN(C[C@H]4CN(c5ccc(C)c(F)c5)C(=O)O4)CC3)c2n1 [Example 38, (S)-3-(3-Fluoro-4-methyl-phenyl)-5-[4-(6-methoxy-[1,5]naphthyridin-4-yl)-piperazin-1-ylmethyl]-oxazolidin-2-one]
14 | ≤ 0.031 µg/mL | COc1cnc2cccc(N3CC(NC[C@@H]4CN(c5ccc6c(c5)NC(=O)CS6)C(=O)O4)C3)c2c1 [Example 157, 6-((R)-5-{[1-(3-Methoxy-quinolin-5-yl)-azetidin-3-ylamino]-methyl}-2-oxo-oxazolidin-3-yl)-4H-benzo[1,4]thiazin-3-one]
15 | ≤ 0.031 µg/mL | COc1ccc2nccc(N3CC[C@H](NC[C@@H]4CN(c5ccc6c(c5)NC(=O)CO6)C(=O)O4)C3)c2n1 [Example 69, 6-((R)-5-{[(S)-1-(6-Methoxy-[1,5]naphthyridin-4-yl)-pyrrolidin-3-ylamino]-methyl}-2-oxo-oxazolidin-3-yl)-4H-benzo[1,4]oxazin-3-one]
16 | ≤ 0.031 µg/mL | COc1ccc2nccc(N3CC[C@@H](CNC[C@@H]4CN(c5ccc6c(c5)NC(=O)CS6)C(=O)O4)C3)c2c1 [Example 173, 6-[(R)-5-({[(S)-1-(6-Methoxy-quinolin-4-yl)-pyrrolidin-3-ylmethyl]-amino}-methyl)-2-oxo-oxazolidin-3-yl]-4H-benzo[1,4]thiazin-3-one]
17 | ≤ 0.031 µg/mL | COc1ccc2nccc(N3CCC(CNC(=O)[C@@H]4CN(c5ccc(C)c(F)c5)C(=O)O4)C3)c2n1 (mixture of isomers) [Example 82, (S)-3-(3-Fluoro-4-methyl-phenyl)-2-oxo-oxazolidine-5-carboxylic acid [(RS)-1-(6-methoxy-[1,5]naphthyridin-4-yl)-pyrrolidin-3-ylmethyl]-amide]
18 | ≤ 0.031 µg/mL | COc1ccc2nccc(N3CC[C@H](N(C)C[C@@H]4CN(c5ccc6c(c5)OCCO6)C(=O)O4)C3)c2n1 [Example 112, (R)-3-(2,3-Dihydro-benzo[1,4]dioxin-6-yl)-5-({[(S)-1-(6-methoxy-[1,5]naphthyridin-4-yl)-pyrrolidin-3-yl]-methyl-amino}-methyl)-oxazolidin-2-one]
19 | 0.063 µg/mL | COc1ccc2nccc(N3CCC(O)(CNC[C@@H]4CN(c5ccc6c(c5)NC(=O)CS6)C(=O)O4)C3)c2n1 (mixture of isomers) [Example 129, 6-[(R)-5-({[(RS)-3-Hydroxy-1-(6-methoxy-[1,5]naphthyridin-4-yl)-pyrrolidin-3-ylmethyl]-amino}-methyl)-2-oxo-oxazolidin-3-yl]-4H-benzo[1,4]thiazin-3-one]
20 | ≤ 0.031 µg/mL | CCOc1ccc(N2C[C@@H](CNC3CN(c4ccnc5ccc(OC)nc45)C3)OC2=O)cc1 [Example 175, (R)-3-(4-Ethoxy-phenyl)-5-{[1-(6-methoxy-[1,5]naphthyridin-4-yl)-azetidin-3-ylamino]-methyl}-oxazolidin-2-one]
21 | ≤ 0.031 µg/mL | COc1ccc2nccc(N3CC[C@@H](NCCC4CN(c5ccc6c(c5)NC(=O)CS6)C(=O)O4)C3)c2n1 (mixture of isomers) [Example 87, 6-((RS)-5-{2-[(R)-1-(6-Methoxy-[1,5]naphthyridin-4-yl)-pyrrolidin-3-ylamino]-ethyl}-2-oxo-oxazolidin-3-yl)-4H-benzo[1,4]thiazin-3-one]
22 | ≤ 0.031 µg/mL | COc1ccc2nccc(N3CCN(C(=O)C[C@@H]4CN(c5ccc6c(c5)NC(=O)CS6)C(=O)O4)CC3)c2n1 [Example 114, 6-((R)-5-{2-[4-(6-Methoxy-[1,5]naphthyridin-4-yl)-piperazin-1-yl]-2-oxo-ethyl}-2-oxo-oxazolidin-3-yl)-4H-benzo[1,4]thiazin-3-one]
23 | ≤ 0.031 µg/mL | COc1ccc2nccc(N3CC(N(CCO)C[C@@H]4CN(c5ccc6c(c5)NC(=O)CS6)C(=O)O4)C3)c2n1 [Example 128, 6-[(R)-5-({(2-Hydroxy-ethyl)-[1-(6-methoxy-[1,5]naphthyridin-4-yl)-azetidin-3-yl]-amino}-methyl)-2-oxo-oxazolidin-3-yl]-4H-benzo[1,4]thiazin-3-one]
24 | 0.5 µg/mL (≈ 1.02 µM) | COc1ccc2nccc(N3CCN(CC4CN(c5ccc(C(F)(F)F)cn5)C(=O)O4)CC3)c2n1 (racemic) [Example 44, (RS)-5-[4-(6-Methoxy-[1,5]naphthyridin-4-yl)-piperazin-1-ylmethyl]-3-(5-trifluoromethyl-pyridin-2-yl)-oxazolidin-2-one]
25 | ≤ 0.031 µg/mL | O=C1O[C@H](CN2CCN(c3ccnc4ccccc34)CC2)CN1c1ccc2c(c1)OCCO2 [Example 99, (R)-3-(2,3-Dihydro-benzo[1,4]dioxin-6-yl)-5-(4-quinolin-4-yl-piperazin-1-ylmethyl)-oxazolidin-2-one]
26 | ≤ 0.031 µg/mL | COc1ccc2nccc(N3CC[C@H](NC[C@@H]4CN(c5ccc6c(c5)OCCO6)C(=O)O4)C3)c2n1 [Example 41, (R)-3-(2,3-Dihydro-benzo[1,4]dioxin-6-yl)-5-{[(S)-1-(6-methoxy-[1,5]naphthyridin-4-yl)-pyrrolidin-3-ylamino]-methyl}-oxazolidin-2-one]
27 | ≤ 0.031 µg/mL | COc1ccc2nccc(N3CCN(C[C@H]4CN(c5ccc6c(c5)NC(=O)CS6)C(=O)O4)CC3)c2n1 [Example 39, 6-{(S)-5-[4-(6-Methoxy-[1,5]naphthyridin-4-yl)-piperazin-1-ylmethyl]-2-oxo-oxazolidin-3-yl}-4H-benzo[1,4]thiazin-3-one]

Row | Structure (SMILES) | MIC
28 | COc1ccc2ncc(F)c(C3(O)CCN(C[C@@H]4CN(c5ccc6c(c5)NC(=O)CS6)C(=O)O4)CC3)c2n1 [Example 126, 6-{(R)-5-[4-(3-Fluoro-6-methoxy-[1,5]naphthyridin-4-yl)-4-hydroxy-piperidin-1-ylmethyl]-2-oxo-oxazolidin-3-yl}-4H-benzo[1,4]thiazin-3-one] | ≤ 0.031 µg/mL
